This passage reports IC50 results from patent US12319655B2, “RAF kinase inhibitors and methods of use thereof” (Deciphera Pharmaceuticals, LLC, priority 2021, dated 2025).

The test system of one assay is A375 cells. Briefly: A375 Cell Proliferation Assay (2). The settings on record: Homo sapiens, A-375. Format: cell-based. How it is done:
A375 Cell Proliferation Assay (2)
A375 cells (catalog (#CRL-1619) are obtained from the American Type Culture Collect (ATTC, Manassas, VA). Briefly, cells were grown in DMEM High Glucose supplemented with 10% characterized fetal bovine serum (Invitrogen, Carlsbad, CA) and 1% Penicillin/Streptomycin/L-Glutamine at 37° C., 5% CO2, and 95% humidity. Cells are expanded until reaching 70-95% confluency at which point they are sub-cultured or harvested for assay use. Using the Beckman Coulter Echo 650, a serial dilution of test compound is dispensed into a 384-well black clear bottom plate in triplicate. Six hundred twenty-five cells are added per well in 50 μL complete growth medium in the 384-well plate. Plates are incubated for 67-72 h at 37° C., 5% CO2, and 95% humidity. At the end of the incubation, 10 μL of a 440 μM solution of resazurin (Sigma, St. Louis, MO) in PBS is added to each well of the plate and plates are incubated for an additional 3-6 h at 37° C., 5% CO2, and 95% humidity. Plates are read on a Synergy2 or equivalent reader (Biotek, Winooski VT) using an excitation of 540 nm and an emission of 600 nm. Data is analyzed using Prism software (GraphPad, San Diego, CA) to calculate IC50 values.

In the next assay the test system is WM3928 cells. Briefly: WM3928 Cell Proliferation Assay (2). The class given is cell-based. How it is done:
WM3928 Cell Proliferation Assay (2)
WM3928 cells (#WM3928-01-0001) are obtained from Rockland Immunochemicals Inc (Gilbertsville, PA). Briefly, cells were grown in MCDB 153 medium (Sigma, #M7403, St. Louis, MO) supplemented with 20% Leibovitz's L-15 (ThermoFisher #11415-064, Waltham, MA), 2% heat inactivated fetal bovine serum (ThermoFisher, #A3840001, Waltham, MA), 5 μg/mL Insulin (Bovine Pancreas) (Sigma, #10516, St. Louis, MO), 1.68 mM Calcium Chloride (Sigma, #C-34006, St. Louis, MO) and 1% Penicillin/Streptomycin/L-Glutamine (ThermoFisher #10378016, Waltham, MA) at 37° C., 5% CO2, and 95% humidity. Cells are expanded until reaching 70-95% confluency at which point they are sub-cultured or harvested for assay use. Using the Beckman Coulter Echo 650, a serial dilution of test compound is dispensed into a 384-well black clear bottom plate in triplicate. Seven hundred fifty cells are added per well in 50 μL complete growth medium in the 384-well plate. Plates are incubated for 67-72 hours at 37° C., 5% CO2, and 95% humidity. At the end of the incubation, 10 μL of a 440 μM solution of resazurin (Sigma, #199303, St. Louis, MO) in PBS is added to each well of the plate and plates are incubated for an additional 3-6 hours at 37° C., 5% CO2, and 95% humidity. Plates are read on a Synergy2 or equivalent reader (Biotek, Winooski VT) using an excitation of 540 nm and an emission of 600 nm. Data is analyzed using Prism software (GraphPad, San Diego, CA) to calculate IC50 values.

Assay [1] addresses C-Raf kinase (SEQ. ID NO: 3) (Homo sapiens (Human), UniProt P04049, Y340D/Y341D). Nature of the assay: Biochemical Assay for C-Raf (2). The conditions noted are these: Table J, biochemical assay (2); read-out: CRAF (2). How it is done: Biochemical Assay for C-Raf (2)
Activity of C-Raf kinase (SEQ. ID NO: 3) was determined spectroscopically using a coupled pyruvate kinase/lactate dehydrogenase assay that continuously monitors the ATP hydrolysis-dependent oxidation of NADH (e.g., Schindler et al., Science, 2000, 289, 1938-1942). Assays were conducted in 384-well plates (25 μL final volume) using 3.84 nM C-Raf (Eurofins), 1.5 units pyruvate kinase, 2.1 units lactate dehydrogenase, 1 mM phosphoenol pyruvate, 0.7 mM NADH, 50 nM MEK (SignalChem), and 1 mM ATP in assay buffer (100 mM Tris, pH 7.5, 15 mM MgCl2, 0.5 mM DTT, 0.1% octyl-glucoside, 0.002% (w/v) BSA, and 0.002% Triton X-100). Inhibition of C-Raf was measured by adding serial diluted test compound (final assay concentration of 1% DMSO). A decrease in absorption at 340 nm was monitored hourly for 4 h at 30° C. on a multi-mode microplate reader (BioTek). The reaction rate was calculated using the 2 to 3 h time frame. The reaction rate at each concentration of compound was converted to percent inhibition using controls (i.e., reaction with no test compound and reaction with a known inhibitor) and IC50 values were calculated by fitting a four-parameter sigmoidal curve to the data using Prism (GraphPad software).

Assay [2] concerns the target A-Raf kinase (SEQ. ID No: 1) (Homo sapiens (Human), UniProt P10398, Y301D/Y302D). Briefly: Biochemical Assay for A-Raf (2). The settings on record: Table J, biochemical assay (2); read-out: ARAF (2). The procedure:
Biochemical Assay for A-Raf (2)
Activity of A-Raf kinase (SEQ. ID No: 1) was determined spectroscopically using a coupled pyruvate kinase/lactate dehydrogenase assay that continuously monitors the ATP hydrolysis-dependent oxidation of NADH (e.g., Schindler et al., Science, 2000, 289, 1938-1942). Assays were conducted in 384-well plates (25 μL final volume) using 20 nM A-Raf (Eurofins), 1.5 units pyruvate kinase, 2.1 units lactate dehydrogenase, 1 mM phosphoenol pyruvate, 0.7 mM NADH, 100 nM MEK (SignalChem), and 1 mM ATP in assay buffer (100 mM Tris, pH 7.5, 15 mM MgCl2, 0.5 mM DTT, 0.1% octyl-glucoside, 0.002% (w/v) BSA, and 0.002% Triton X-100). Inhibition of A-Raf was measured by adding serial diluted test compound (final assay concentration of 1% DMSO). A decrease in absorption at 340 nm was monitored hourly for 4 h at 30° C. on a multi-mode microplate reader (BioTek). The reaction rate was calculated using the 3 to 4 h time frame. The reaction rate at each concentration of compound was converted to percent inhibition using controls (i.e., reaction with no test compound and reaction with a known inhibitor) and IC50 values were calculated by fitting a four-parameter sigmoidal curve to the data using Prism (GraphPad software).

pIC50: −log10 of the molar value.

Sequence of C-Raf kinase (SEQ. ID NO: 3) (P04049 307-648 Y340D/Y341D): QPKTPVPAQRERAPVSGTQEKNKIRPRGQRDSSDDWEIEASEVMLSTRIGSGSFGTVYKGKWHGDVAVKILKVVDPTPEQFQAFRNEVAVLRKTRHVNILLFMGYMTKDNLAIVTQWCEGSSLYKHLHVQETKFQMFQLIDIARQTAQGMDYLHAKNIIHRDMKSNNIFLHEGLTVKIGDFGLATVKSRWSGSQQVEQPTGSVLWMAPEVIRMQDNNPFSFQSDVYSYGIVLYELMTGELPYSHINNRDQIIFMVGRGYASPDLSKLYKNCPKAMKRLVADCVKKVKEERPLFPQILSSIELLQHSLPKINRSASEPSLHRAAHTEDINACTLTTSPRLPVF
Sequence of A-Raf kinase (SEQ. ID No: 1) (P10398 other isoform, or with tags, fused parts or gaps Y301D (already in the parent)/Y302D (already in the parent)): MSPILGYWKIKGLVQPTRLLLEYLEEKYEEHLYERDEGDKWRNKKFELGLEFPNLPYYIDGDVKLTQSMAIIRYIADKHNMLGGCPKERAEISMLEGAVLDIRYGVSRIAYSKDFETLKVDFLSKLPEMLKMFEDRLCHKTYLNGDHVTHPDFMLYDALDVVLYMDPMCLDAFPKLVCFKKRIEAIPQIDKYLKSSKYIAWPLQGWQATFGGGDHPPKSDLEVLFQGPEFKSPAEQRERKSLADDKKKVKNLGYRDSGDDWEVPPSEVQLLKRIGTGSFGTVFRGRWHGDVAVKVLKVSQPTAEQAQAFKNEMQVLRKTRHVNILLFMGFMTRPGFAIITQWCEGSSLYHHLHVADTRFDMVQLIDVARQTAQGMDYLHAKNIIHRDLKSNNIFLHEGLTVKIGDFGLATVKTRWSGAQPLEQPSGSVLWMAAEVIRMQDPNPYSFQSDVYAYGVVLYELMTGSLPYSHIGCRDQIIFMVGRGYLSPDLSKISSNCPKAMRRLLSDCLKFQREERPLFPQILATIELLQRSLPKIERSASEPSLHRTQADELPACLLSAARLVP

`Cc1ccc(NC(=O)c2ccnc(C(C)(C)F)c2)cc1-c1ccnc(-c2ccnc(C(N)=O)c2)c1` [Example 476]: the pIC50 in the assay with A375 cells is ≥ 7.00; with WM3928 cells it was ≥ 7.00; in assay [1] it was ≥ 7.00; in assay [2], 6.00 to 6.30.

For `Cc1ccc(NC(=O)c2ccnc(C(C)(F)F)c2)cc1-c1ccnc(-c2ccnc(NC(=O)C3CC3)c2)c1` [Example 459], the pIC50 was ≥ 7.00 with A375 cells, ≥ 7.00 with WM3928 cells, ≥ 7.00 in assay [1] and 6.30 to 7.00 in assay [2].

Regarding `CNC(=O)c1cc(-c2cncc(-c3cc(NC(=O)c4ccnc(C(C)(F)F)c4)ccc3C)c2)ncn1` [Example 439], the pIC50 with A375 cells was 6.30 to 7.00; with WM3928 cells, 6.30 to 7.00; in assay [1] it was ≥ 7.00; in assay [2], 5.00 to 6.00.

Consider `Cc1ncc(NC(=O)c2ccnc(C(C)C)c2)cc1-c1ccnc(-c2ccnc(NC(=O)C3CC3)c2)c1` [Example 468], for which the pIC50 in the assay on A375 cells is 6.30 to 7.00; in the assay with WM3928 cells it was ≥ 7.00; in assay [1], ≥ 7.00; in assay [2], 6.30 to 7.00.

Take `CNC(=O)c1cc(-c2cc(-c3cc(NC(=O)c4ccnc(C5CC5)c4)ccc3C)ccn2)ccn1` [Example 460]: the pIC50 in the assay with A375 cells is 6.30 to 7.00; with WM3928 cells, ≥ 7.00; in assay [1], ≥ 7.00; in assay [2], 6.00 to 6.30.

In the case of `Cc1ccc(NC(=O)c2ccnc(C(C)(C)F)c2)cc1-c1ccnc(-c2ccnc(C(=O)NCCO)c2)c1` [Example 448], the pIC50 was 6.30 to 7.00 in the assay with A375 cells, ≥ 7.00 in the assay with WM3928 cells, ≥ 7.00 in assay [1] and 5.00 to 6.00 in assay [2].

Turning to `CNC(=O)c1cc(-c2cc(-c3cc(NC(=O)c4ccnc(C(C)(C)F)c4)ccc3F)ccn2)ccn1` [Example 479], the pIC50 was 6.30 to 7.00 in the assay with A375 cells, ≥ 7.00 in the assay with WM3928 cells, ≥ 7.00 in assay [1] and 6.30 to 7.00 in assay [2].

In the case of `Cc1ncc(NC(=O)c2ccnc(C(C)(F)F)c2)cc1-c1ccnc(-c2ccnc(NC(=O)C3CC3)c2)c1` [Example 466], the pIC50 with A375 cells is 6.30 to 7.00; in the assay with WM3928 cells it was ≥ 7.00; in assay [1], ≥ 7.00; in assay [2], 6.00 to 6.30.

On to `CNC(=O)c1cc(-c2cc(-c3cc(NC(=O)c4ccnc(C(C)(C)F)c4)ccc3C)c(C)cn2)ccn1` [Example 472], for which the pIC50 is 6.30 to 7.00 with A375 cells, 6.00 to 6.30 in the assay on WM3928 cells, 6.00 to 6.30 in assay [1] and 5.00 to 6.00 in assay [2].

Take `CNC(=O)c1cc(-c2cc(-c3cc(NC(=O)c4cnnc(C(F)(F)F)c4)ccc3C)ccn2)ccn1` [Example 477]: the pIC50 in the assay with A375 cells was 5.00 to 6.00; in the assay on WM3928 cells it was 6.00 to 6.30; in assay [1], ≥ 7.00; in assay [2] it was 5.00 to 6.00.

With `CNC(=O)c1cc(-c2cc(-c3cc(NC(=O)c4ccnc(C(C)(C)F)c4)ccc3C)ncn2)ccn1` [Example 474], the pIC50 is ≥ 7.00 with A375 cells, ≥ 7.00 in the assay with WM3928 cells, ≥ 7.00 in assay [1] and 6.00 to 6.30 in assay [2].

As to `CNC(=O)c1cc(-c2cncc(-c3cc(NC(=O)c4ccnc(C(C)(F)F)c4)ccc3C)c2)ccn1` [Example 440], the pIC50 in the assay on A375 cells was 6.30 to 7.00; with WM3928 cells, ≥ 7.00; in assay [1], ≥ 7.00; in assay [2], 5.00 to 6.00.

`CNC(=O)c1cc(-c2cc(-c3cc(NC(=O)c4ccnc(C5CC5)c4)cnc3C)ccn2)ccn1` [Example 462]: the pIC50 in the assay with A375 cells is 5.00 to 6.00; in the assay with WM3928 cells, 6.00 to 6.30; in assay [1], ≥ 7.00; in assay [2] it was 5.00 to 6.00.

On to `Cc1ccc(NC(=O)c2ccnc(C(C)C)c2)cc1-c1ccnc(-c2ccnc(NC(=O)C3CC3)c2)c1` [Example 467], for which the pIC50 was ≥ 7.00 with A375 cells, ≥ 7.00 in the assay on WM3928 cells, ≥ 7.00 in assay [1] and 6.30 to 7.00 in assay [2].

For `Cc1ccc(NC(=O)c2ccnc(C(C)(C)F)c2)cc1-c1ccnc(-c2ccnc(C(=O)NCC#N)c2)c1` [Example 451], the pIC50 in the assay on A375 cells was ≥ 7.00; with WM3928 cells it was ≥ 7.00; in assay [1] it was ≥ 7.00; in assay [2], 5.00 to 6.00.

Turning to `Cc1cc(-c2cc(NC(=O)c3ccnc(C(C)(C)F)c3)ccc2C)cc(-c2ccnc(C(N)=O)c2)n1` [Example 484], the pIC50 in the assay with A375 cells is ≥ 7.00; in the assay with WM3928 cells it was ≥ 7.00; in assay [1], ≥ 7.00; in assay [2], 6.00 to 6.30.

As for `Cc1ccc(NC(=O)c2ccnc(C(C)(C)C#N)c2)cc1-c1ccnc(-c2ccnc(NC(=O)C3CC3)c2)c1` [Example 456], the pIC50 in the assay with A375 cells was ≥ 7.00; in the assay on WM3928 cells it was ≥ 7.00; in assay [1], ≥ 7.00; in assay [2] it was 6.30 to 7.00.

In the case of `Cc1ccc(NC(=O)c2ccnc(C(C)(C)F)c2)cc1-c1ccnc(-c2ccnc(C(=O)NC3CN(C)C3)c2)c1` [Example 450], the pIC50 with A375 cells was 6.30 to 7.00; with WM3928 cells, 6.30 to 7.00; in assay [1] it was 6.30 to 7.00; in assay [2], 5.00 to 6.00.

Regarding `CNC(=O)c1cc(-c2cc(-c3cc(NC(=O)c4ccnc(C(C)C)c4)ccc3C)ccn2)ccn1` [Example 443], the pIC50 with A375 cells is 6.30 to 7.00; in the assay on WM3928 cells, ≥ 7.00; in assay [1] it was ≥ 7.00; in assay [2], 6.00 to 6.30.

For `CNC(=O)c1cc(-c2cc(-c3cc(NC(=O)c4ccnc(C(C)(C)F)c4)ccc3C)cc(OCCO)n2)ccn1` [Example 449], the pIC50 is ≥ 7.00 in the assay with A375 cells, ≥ 7.00 with WM3928 cells, ≥ 7.00 in assay [1] and 5.00 to 6.00 in assay [2].

Regarding `Cc1ccc(NC(=O)c2ccnc(C3CC3)c2)cc1-c1ccnc(-c2ccnc(NC(=O)C3CC3)c2)c1` [Example 458], the pIC50 was 6.30 to 7.00 with A375 cells, ≥ 7.00 in the assay with WM3928 cells, ≥ 7.00 in assay [1] and 6.30 to 7.00 in assay [2].

As to `CNC(=O)c1cc(-c2cc(-c3cc(NC(=O)c4ccnc(C(C)(C)F)c4)cc(F)c3C)ccn2)ccn1` [Example 480], the pIC50 with A375 cells is 6.30 to 7.00; in the assay with WM3928 cells it was ≥ 7.00; in assay [1], 6.30 to 7.00; in assay [2] it was 5.00 to 6.00.
